Measurements published in ChEMBL document CHEMBL1138548, “Three-dimensional QSAR analyses of 1,3,4-trisubstituted pyrrolidine-based CCR5 receptor inhibitors” (Eur J Med Chem, 2008).

Target: C-C chemokine receptor type 5 (Homo sapiens, UniProt P51681)
Assay: biochemical
Assay type: cell-based, CHO
Description: Displacement of [125I]MIP1alpha from human CCR5 expressed in CHO cells

Chain of C-C chemokine receptor type 5 (P51681 whole entry): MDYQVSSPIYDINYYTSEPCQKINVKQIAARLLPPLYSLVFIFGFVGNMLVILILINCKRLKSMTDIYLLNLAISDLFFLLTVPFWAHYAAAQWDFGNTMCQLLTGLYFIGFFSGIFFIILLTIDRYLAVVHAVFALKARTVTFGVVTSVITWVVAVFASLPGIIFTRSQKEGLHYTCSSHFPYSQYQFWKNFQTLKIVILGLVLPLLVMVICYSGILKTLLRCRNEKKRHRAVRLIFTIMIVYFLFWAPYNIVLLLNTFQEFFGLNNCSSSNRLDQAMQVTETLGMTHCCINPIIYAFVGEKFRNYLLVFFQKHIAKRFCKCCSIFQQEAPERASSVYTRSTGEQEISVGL

Row | IC50 | Compound
1 | 122 nM | CCn1nc(-c2ccc(CN)cc2)cc1C1CCN(C[C@H]2CN([C@@H](C(=O)O)C3CCCCC3)C[C@@H]2c2ccccc2)CC1
2 | 0.89 nM | CCc1nc(Cc2ccccc2)oc1C1CCN(C[C@H]2CN([C@H](CC3CCC3)C(=O)O)C[C@@H]2c2ccccc2)CC1
3 | 0.3 nM | O=C(O)[C@@H](CC1CCCCC1)N1C[C@H](CN2CCC(CCC(F)(F)c3ccc(F)cc3)CC2)[C@@H](c2ccccc2)C1
4 | 0.4 nM | Cn1nnc(-c2ccc(CCCC3(O)CCN(C[C@H]4CN(CC5CCCCC5)C[C@@H]4c4ccccc4)CC3)cc2)n1
5 | 6.9 nM | CCn1nc(C(C)(C)c2ccccc2)cc1C1CCN(C[C@H]2CN([C@@H](C(=O)O)C3CCCCC3)C[C@@H]2c2ccccc2)CC1
6 | 3.6 nM | C=C(Cc1ccccc1)[C@@H](C1CCCCC1)N1C[C@H](CN2CCC(O)(CCCc3ccccc3)CC2)[C@@H](c2ccccc2)C1
7 | 0.9 nM | CC(C)C[C@H](C(=O)O)N1C[C@H](CN2CCC(CCS(=O)(=O)c3ccc(F)cc3)CC2)[C@@H](c2cccc(F)c2)C1
8 | 0.76 nM | CCc1nc(Cc2ccccc2)sc1C1CCN(C[C@H]2CN([C@H](CC3CCC3)C(=O)O)C[C@@H]2c2ccccc2)CC1
9 | 1.2 nM | O=C(O)[C@@H](C1CCCCC1)N1C[C@H](CN2CCC(c3cc(Cc4ccccc4)on3)CC2)[C@@H](c2ccccc2)C1
10 | 0.8 nM | CC(C)C[C@H](C(=O)O)N1C[C@H](CN2CCC(CCSc3ccc(F)cc3)CC2)[C@@H](c2cccc(F)c2)C1
11 | 0.5 nM | CC(C)C[C@H](C(=O)O)N1C[C@H](CN2CCC(CCC(F)(F)c3ccc(F)cc3)CC2)[C@@H](c2cccc(F)c2)C1
12 | 0.6 nM | O=C(O)[C@@H](CC1CCC1)N1C[C@H](CN2CCC(c3[nH]c(Cc4ccccc4)nc3Cl)CC2)[C@@H](c2ccccc2)C1
13 | 12 nM | O=C(O)[C@@H](CC1CCC1)N1C[C@H](CN2CCC(c3nnc4ccccn34)CC2)[C@@H](c2cccc(F)c2)C1
14 | 1 nM | CCc1nc(Cc2ccccc2)sc1C1CCN(C[C@H]2CN([C@H](CC(C)C)C(=O)O)C[C@@H]2c2ccccc2)CC1
15 | 2.1 nM | O=C(O)[C@@H](C1CCCCC1)N1C[C@H](CN2CCC(c3cc(C(F)(F)c4ccccc4)n[nH]3)CC2)[C@@H](c2ccccc2)C1
16 | 11.5 nM | CC(C)(c1ccccc1)c1cc(C2CCN(C[C@H]3CN([C@@H](C(=O)O)C4CCCCC4)C[C@@H]3c3ccccc3)CC2)[nH]n1
17 | 0.57 nM | CCc1nc(Cc2ccccc2)[nH]c1C1CCN(C[C@H]2CN([C@H](CC3CCC3)C(=O)O)C[C@@H]2c2ccccc2)CC1
18 | 3.7 nM | O=C(O)[C@@H](CC1CC1)N1C[C@H](CN2CCC(CCC(OCCO)c3ccc(F)cc3)CC2)[C@@H](c2cccc(F)c2)C1 (some centres not stated)
19 | 0.23 nM | O=C(O)[C@@H](CC1CCC1)N1C[C@H](CN2CCC(c3cnc(Cc4ccccc4)s3)CC2)[C@@H](c2ccccc2)C1
20 | 0.8 nM | O=C(O)[C@@H](C1CCCCC1)N1C[C@H](CN2CCC(c3cc(Cc4ccccc4)no3)CC2)[C@@H](c2ccccc2)C1
21 | 200 nM | O=C(O)[C@@H](CC1CCC1)N1C[C@H](CN2CCC(c3cn4cccnc4n3)CC2)[C@@H](c2cccc(F)c2)C1
22 | 0.23 nM | O=C(O)[C@@H](CC1CC1)N1C[C@H](CN2CCC(c3cnc(Cc4ccccc4)s3)CC2)[C@@H](c2ccccc2)C1
